Each compound was assayed against human adenosine A2b receptor (Homo sapiens (Human), UniProt P29275) (assay: Cellular in vitro reporter gene test for A2b receptor activity (CHO-K1, CRE-luciferase, NECA stimulation)). Details: recombinant CHO-K1 cell line, CRE-luciferase reporter, antagonism of EC50 concentration of NECA; in some cases means of several determinations, rounded to two significant figures; read-out: A2b receptor IC50.
Format: cell-based
Method in brief: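 CHO-K1 cells with CRE-driven luciferase; antagonists co-incubated with NECA at its EC50, determined in a pre-experiment on each test day. Luciferase read by luminescence 3 h after NECA addition.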

Chain of human adenosine A2b receptor (P29275 whole entry): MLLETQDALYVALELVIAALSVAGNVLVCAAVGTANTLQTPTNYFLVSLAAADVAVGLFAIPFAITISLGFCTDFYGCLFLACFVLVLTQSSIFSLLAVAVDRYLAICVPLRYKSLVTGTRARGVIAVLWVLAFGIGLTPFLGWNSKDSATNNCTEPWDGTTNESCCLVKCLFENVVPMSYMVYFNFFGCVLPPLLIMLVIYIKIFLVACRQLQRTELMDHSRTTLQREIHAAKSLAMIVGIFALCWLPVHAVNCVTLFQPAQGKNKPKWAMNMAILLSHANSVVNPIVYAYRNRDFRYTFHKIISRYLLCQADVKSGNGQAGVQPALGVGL

**Q.** `CCn1c(=O)c2c(C)c(CN3CCNC3=NC(=O)OC)sc2n(CCC(F)(F)F)c1=O` [Example 370, Methyl [1-{[3-ethyl-5-methyl-2,4-dioxo-1-(3,3,3-trifluoropropyl)-1,2,3,4-tetrahydrothieno[2,3-d]pyrimidin-6-yl]methyl}imidazolidin-2-ylidene]carbamate] was tested. Which IC50 did it give?
**A.** Its IC50 is 2 nM.

**Q.** Which IC50 does the source give for `COC(=O)N=C1NCCN1Cc1sc2c(c1C)c(=O)n(C(C)C)c(=O)n2CCC(F)(F)F` [Example 377, Methyl [1-{[3-isopropyl-5-methyl-2,4-dioxo-1-(3,3,3-trifluoropropyl)-1,2,3,4-tetrahydrothieno[2,3-d]pyrimidin-6-yl]methyl}imidazolidin-2-ylidene]carbamate] here?
**A.** Its IC50 is 3.4 nM.

**Q.** How did the IC50 turn out when `COCCn1c(=O)n(C(C)C)c(=O)c2c(C)c(CN3CCNC3=NC(=O)OC)sc21` [Example 378, Methyl [1-{[3-isopropyl-1-(2-methoxyethyl)-5-methyl-2,4-dioxo-1,2,3,4-tetrahydrothieno[2,3-d]pyrimidin-6-yl]methyl}imidazolidin-2-ylidene]carbamate] was run?
**A.** The IC50 was 3.1 nM.

**Q.** For `COC(=O)N=C1NCCN1Cc1sc2c(c1C)c(=O)n(CC(F)(F)F)c(=O)n2CCC(F)(F)F` [Example 381, Methyl [1-{[5-methyl-2,4-dioxo-3-(2,2,2-trifluoroethyl)-1-(3,3,3-trifluoropropyl)-1,2,3,4-tetrahydrothieno[2,3-d]pyrimidin-6-yl]methyl}imidazolidin-2-ylidene]carbamate], which IC50 is on record?
**A.** Its IC50 is 4.1 nM.

**Q.** For `COCCn1c(=O)n(CC(F)(F)F)c(=O)c2c(C)c(CN3CCNC3=NC(=O)OC)sc21` [Example 382, Methyl [1-{[1-(2-methoxyethyl)-5-methyl-2,4-dioxo-3-(2,2,2-trifluoroethyl)-1,2,3,4-tetrahydrothieno[2,3-d]pyrimidin-6-yl]methyl}imidazolidin-2-ylidene]carbamate], which IC50 is on record?
**A.** Its IC50 is 6.8 nM.

**Q.** For `COCCn1c(=O)c2c(C)c(CN3CCNC3=NC(=O)OC)sc2n(CCC(F)(F)F)c1=O` [Example 385, Methyl [1-{[3-(2-methoxyethyl)-5-methyl-2,4-dioxo-1-(3,3,3-trifluoropropyl)-1,2,3,4-tetrahydrothieno[2,3-d]pyrimidin-6-yl]methyl}imidazolidin-2-ylidene]carbamate], which IC50 is on record?
**A.** The IC50 was 4.7 nM.

**Q.** How did the IC50 turn out when `COCCn1c(=O)c2c(C)c(CN3CCNC3=NC(=O)OC)sc2n(CCOC)c1=O` [Example 386, Methyl [1-{[1,3-bis(2-methoxyethyl)-5-methyl-2,4-dioxo-1,2,3,4-tetrahydrothieno[2,3-d]pyrimidin-6-yl]methyl}imidazolidin-2-ylidene]carbamate] was run?
**A.** Its IC50 is 16 nM.

**Q.** With `CCn1c(=O)c2c(C)c(CN3CCNC(=O)C3=O)sc2n(CF)c1=O` [Example 393, 6-[(2,3-Dioxopiperazin-1-yl)methyl]-3-ethyl-1-(fluoromethyl)-5-methylthieno[2,3-d]pyrimidine-2,4(1H,3H)-dione] as the compound, how does the IC50 read?
**A.** The IC50 was 45 nM.

**Q.** For `CCn1c(=O)c2c(C)c(CN3CCNC(=O)C3=O)sc2n(CCC(F)(F)F)c1=O` [Example 394, 6-[(2,3-Dioxopiperazin-1-yl)methyl]-3-ethyl-5-methyl-1-(3,3,3-trifluoropropyl)thieno[2,3-d]pyrimidine-2,4(1H,3H)-dione], which IC50 is on record?
**A.** Its IC50 is 3.2 nM.

**Q.** `CCn1c(=O)c2c(C)c(CN3CCNC(=O)C3=O)sc2n(CCOC2CCCC2)c1=O` [Example 395, 1-[2-(Cyclopentyloxy)ethyl]-6-[(2,3-dioxopiperazin-1-yl)methyl]-3-ethyl-5-methylthieno[2,3-d]pyrimidine-2,4(1H,3H)-dione] was tested. Which IC50 did it give?
**A.** The IC50 was 94 nM.

**Q.** How did the IC50 turn out when `CCn1c(=O)c2c(C)c(CN3CCNC(=O)C3=O)sc2n(CCCOC)c1=O` [Example 396, 6-[(2,3-Dioxopiperazin-1-yl)methyl]-3-ethyl-1-(3-methoxypropyl)-5-methylthieno[2,3-d]pyrimidine-2,4(1H,3H)-dione] was run?
**A.** Its IC50 is 93 nM.

**Q.** Which IC50 does the source give for `CCOCCn1c(=O)c2c(C)c(CN3CCNC(=O)C3=O)sc2n(CCC(F)(F)F)c1=O` [Example 403, 6-[(2,3-Dioxopiperazin-1-yl)methyl]-3-(2-ethoxyethyl)-5-methyl-1-(3,3,3-trifluoropropyl)thieno[2,3-d]pyrimidine-2,4(1H,3H)-dione] here?
**A.** The IC50 was 35 nM.

**Q.** For `CCOCCn1c(=O)c2c(C)c(CN3CCNC(=O)C3=O)sc2n(CCOC)c1=O` [Example 404, 6-[(2,3-Dioxopiperazin-1-yl)methyl]-3-(2-ethoxyethyl)-1-(2-methoxyethyl)-5-methylthieno[2,3-d]pyrimidine-2,4(1H,3H)-dione], which IC50 is on record?
**A.** Its IC50 is 120 nM.

**Q.** How did the IC50 turn out when `CCOCCn1c(=O)c2c(C)c(CN3CCNC3=S)sc2n(CCCF)c1=O` [Example 405, 3-(2-Ethoxyethyl)-1-(3-fluoropropyl)-5-methyl-6-[(2-thioxoimidazolidin-1-yl)methyl]thieno[2,3-d]pyrimidine-2,4(1H,3H)-dione] was run?
**A.** Its IC50 is 30 nM.

**Q.** For `Cc1c(CN2CCNC2=O)sc2c1c(=O)n(C(C)C(F)(F)F)c(=O)n2CCC(F)(F)F` (centres unmarked) [Example 409, 5-Methyl-6-[(2-oxoimidazolidin-1-yl)methyl]-3-(t1,1,1-trifluoropropan-2-yl)-1-(3,3,3-trifluoropropyl)thieno[2,3-d]pyrimidine-2,4(1H,3H)-dione], which IC50 is on record?
**A.** Its IC50 is 14 nM.

**Q.** For `CCOCCn1c(=O)c2c(C)c(CN3CCNC3=O)sc2n(CCCF)c1=O` [Example 411, 3-(2-Ethoxyethyl)-1-(3-fluoropropyl)-5-methyl-6-[(2-oxoimidazolidin-1-yl)methyl]thieno[2,3-d]pyrimidine-2,4(1H,3H)-dione], which IC50 is on record?
**A.** The IC50 was 53 nM.

**Q.** With `[2H]C([2H])(c1sc2c(c1C)c(=O)n(CC)c(=O)n2CCOC)N1CCNC1=O` [Example 415, 3-Ethyl-1-(2-methoxyethyl)-5-methyl-6-[(2-oxoimidazolidin-1-yl)(dideutero)methyl]thieno[2,3-d]pyrimidine-2,4(1H,3H)-dione] as the compound, how does the IC50 read?
**A.** The IC50 was 9 nM.

**Q.** How did the IC50 turn out when `Cc1c(Cn2nc[nH]c2=O)sc2c1c(=O)n(C(C)C)c(=O)n2CF` [Example 422, 1-(Fluoromethyl)-3-isopropyl-5-methyl-6-[(5-oxo-4,5-dihydro-1H-1,2,4-triazol-1-yl)methyl]thieno[2,3-d]pyrimidine-2,4(1H,3H)-dione] was run?
**A.** Its IC50 is 170 nM.

**Q.** For `Cc1c(Cn2nc[nH]c2=O)sc2c1c(=O)n(C(C)C)c(=O)n2CCCF` [Example 423, 1-(3-Fluoropropyl)-3-isopropyl-5-methyl-6-[(5-oxo-4,5-dihydro-1H-1,2,4-triazol-1-yl)methyl]thieno[2,3-d]pyrimidine-2,4(1H,3H)-dione], which IC50 is on record?
**A.** The IC50 was 55 nM.

**Q.** For `Cc1c(Cn2nc[nH]c2=O)sc2c1c(=O)n(CC(C)(C)C)c(=O)n2CCC(F)(F)F` [Example 427, 3-(2,2-Dimethylpropyl)-5-methyl-6-[(5-oxo-4,5-dihydro-1H-1,2,4-triazol-1-yl)methyl]-1-(3,3,3-trifluoropropyl)thieno[2,3-d]pyrimidine-2,4(1H,3H)-dione], which IC50 is on record?
**A.** The IC50 was 37 nM.

**Q.** With `COCCn1c(=O)n(CC(C)(C)C)c(=O)c2c(C)c(Cn3nc[nH]c3=O)sc21` [Example 428, 3-(2,2-Dimethylpropyl)-1-(2-methoxyethyl)-5-methyl-6-[(5-oxo-4,5-dihydro-1H-1,2,4-triazol-1-yl)methyl]thieno[2,3-d]pyrimidine-2,4(1H,3H)-dione] as the compound, how does the IC50 read?
**A.** The IC50 was 120 nM.

**Q.** How did the IC50 turn out when `Cc1c(Cn2nc[nH]c2=O)sc2c1c(=O)n(CC(F)(F)F)c(=O)n2CCC(F)(F)F` [Example 432, 5-Methyl-6-[(5-oxo-4,5-dihydro-1H-1,2,4-triazol-1-yl)methyl]-3-(2,2,2-trifluoroethyl)-1-(3,3,3-trifluoropropyl)thieno[2,3-d]pyrimidine-2,4(1H,3H)-dione] was run?
**A.** Its IC50 is 92 nM.

**Q.** How did the IC50 turn out when `COCCn1c(=O)n(CC(F)(F)F)c(=O)c2c(C)c(Cn3nc[nH]c3=O)sc21` [Example 433, 1-(2-Methoxyethyl)-5-methyl-6-[(5-oxo-4,5-dihydro-1H-1,2,4-triazol-1-yl)methyl]-3-(2,2,2-trifluoroethyl)thieno[2,3-d]pyrimidine-2,4(1H,3H)-dione] was run?
**A.** Its IC50 is 58 nM.

**Q.** `COCCn1c(=O)c2c(C)c(Cn3nc[nH]c3=O)sc2n(CCC(F)(F)F)c1=O` [Example 439, 3-(2-Methoxyethyl)-5-methyl-6-[(5-oxo-4,5-dihydro-1H-1,2,4-triazol-1-yl)methyl]-1-(3,3,3-trifluoropropyl)thieno[2,3-d]pyrimidine-2,4(1H,3H)-dione] was tested. Which IC50 did it give?
**A.** Its IC50 is 180 nM.

**Q.** Which IC50 does the source give for `Cc1c(CN2CCNC2=NC#N)sc2c1c(=O)n(CC(C)(C)C)c(=O)n2CCC(F)(F)F` [Example 443, [1-{[3-(2,2-Dimethylpropyl)-5-methyl-2,4-dioxo-1-(3,3,3-trifluoropropyl)-1,2,3,4-tetrahydrothieno[2,3-d]pyrimidin-6-yl]methyl}imidazolidin-2-ylidene]cyanamide] here?
**A.** Its IC50 is 7.4 nM.

**Q.** How did the IC50 turn out when `Cc1c(CN2CCNC2=NC#N)sc2c1c(=O)n(CC(C)(C)C)c(=O)n2CCCF` [Example 444, [1-{[3-(2,2-Dimethylpropyl)-1-(3-fluoropropyl)-5-methyl-2,4-dioxo-1,2,3,4-tetrahydrothieno[2,3-d]pyrimidin-6-yl]methyl}imidazolidin-2-ylidene]cyanamide] was run?
**A.** The IC50 was 11 nM.

**Q.** With `COCCn1c(=O)n(CC(C)(C)C)c(=O)c2c(C)c(CN3CCNC3=NC#N)sc21` [Example 445, [1-{[3-(2,2-Dimethylpropyl)-1-(2-methoxyethyl)-5-methyl-2,4-dioxo-1,2,3,4-tetrahydrothieno[2,3-d]pyrimidin-6-yl]methyl}imidazolidin-2-ylidene]cyanamide] as the compound, how does the IC50 read?
**A.** Its IC50 is 12 nM.

**Q.** `CCOCCn1c(=O)c2c(C)c(CN3CCNC3=NC#N)sc2n(CCCF)c1=O` [Example 453, [1-{[3-(2-Ethoxyethyl)-1-(3-fluoropropyl)-5-methyl-2,4-dioxo-1,2,3,4-tetrahydrothieno[2,3-d]pyrimidin-6-yl]methyl}imidazolidin-2-ylidene]cyanamide] was tested. Which IC50 did it give?
**A.** The IC50 was 72 nM.

**Q.** `COC(=O)N=C1NCCN1Cc1sc2c(c1C)c(=O)n(CC(C)(C)C)c(=O)n2CCC(F)(F)F` [Example 461, Methyl [1-{[3-(2,2-dimethylpropyl)-5-methyl-2,4-dioxo-1-(3,3,3-trifluoropropyl)-1,2,3,4-tetrahydrothieno[2,3-d]pyrimidin-6-yl]methyl}imidazolidin-2-ylidene]carbamate] was tested. Which IC50 did it give?
**A.** Its IC50 is 9.2 nM.
